Results reported in patent US7262185B2, “Benzazepine derivative, process for producing the same, and use” (Takeda Chemical Industries Ltd., priority 2001, dated 2007).

Assays:
[1] = molecular target: T1, human CCR5 chemokine receptor (Homo sapiens, UniProt P51681); test: Inhibition of [125I]-RANTES binding to CCR5/CHO cells (CCR5 antagonistic activity); conditions: test compound 1 μM, [125I]-RANTES as ligand, room temperature; for inhibition at 1 µM: 40 min, read-out: Binding Inhibitory Ratio (%)
T1 construct: expressed in transfected cells
Protocol: Cloning of CCR5 gene from human spleen cDNA was conducted using the PCR method. Using spleen cDNA (0.5 ng) (TOYOBO CO., LTD, QUICK-Clone cDNA) as a template, PCR was performed in a DNA Thermal Cycler 480 (manufactured by Perkin Elmer) (reaction conditions: 30 cycles of 95° C. for 1 minute, 60° C. for 1 minute, and 75° C. for 5 minutes) by adding primer sets, SEQ. ID NO: 1 (sequence length: 34; sequence type: nucleic acid; chain number: single strand; topology: linear; kind of sequence: other nucleic acid synthetic. DNA) described in Experimental. Example (1) of WO 99/32100, and SEQ ID NO: 2 (sequence length: 34; sequence type: nucleic acid; chain number: single strand; topology: linear; kind of sequence: other nucleic acid synthetic. DNA) described in Experimental. Example (1) of WO 99/32100, (25 pmol, respectively), which were prepared referring to the nucleotide sequence of CCR5 gene, as reported by Samson et al. (Biochemistry 35 (11), 3362-3367 (1996)) and by using TaKaRa. EX Taq (Takara Shuzo). The resultant. PCR product was subjected to agarose gel electrophoresis to collect an approximately 1.0 kb. DNA fragment, which was subjected to an Original TA Cloning Kit (Funakoshi Co., Ltd.) to carry out cloning of CCR5 gene.
The plasmid obtained above was digested with restriction enzymes XbaI (Takara Shuzo Co., Ltd.) and BamHI (Takara Shuzo Co., Ltd.), and then subjected to agarose gel electrophoresis to collect DNA fragment of about 1.0 kb. The DNA fragment and plasmid pcDNA 3.1 (Funakoshi. Co., Ltd.) for expression in animal cells, which was previously digested with XbaI and BamHI, were mixed and ligated by DNA Ligation Kit Ver. 2 (Takara Shuzo Co., Ltd.). The resulting plasmid was subjected to transformation into. E. coli JM109 competent cells (Takara Shuzo Co., Ltd.) to obtain plasmid pCKR5.
CHO-K1 cells were cultured in a 750-ml tissue culture flask (Becton, Dickinson and Company.) using. Ham F12 medium (NIHON PHARMACEUTICAL CO., LTD.) containing 10% fetal bovine serum (Lifetech Oriental) and were collected using 0.5 g/L trypsin-0.2 g/L EDTA (Lifetech Oriental). The cells were washed with PBS (Lifetech Oriental), centrifuged (1000 rpm, 5 minutes), and suspended in PBS. The DNA was introduced into the cells using a Gene Pulser (Bio-Rad Laboratories, Inc.) under the following conditions. Namely, 8×10^6 cells and 10 μg of plasmid pCKR5 for expression of human CCR5 were placed in a cuvette having a 0.4-cm gap, and electroporation was carried out with a voltage 0.25 kV and 960 μF of capacitance. Then, the cells were transferred into Ham's. F12 medium containing 10% fetal bovine serum, and incubated for 24 hours. The cells were collected, centrifuged, and suspended in Ham' F12 medium containing 10% fetal bovine serum and Geneticin (Lifetech Oriental) at a concentration of 500 μg/ml. The suspension of cells was diluted to a concentration of 10^4 cells/ml, and was inoculated onto 96-well plate (Becton Dickinson), to obtain Geneticin-resistant strain.
Then, resulting. Geneticin-resistant strain were cultured on 96-well plate (Becton Dickinson), and CCR5-expressing cells were selected from the resistant cells. Namely, in an assay buffer, (Ham's F12 medium containing 0.5% BSA, and 20 mM HEPES (Wako Pure Chemical Ind., pH 7.2)) to which was added […][125I]-RANTES (Amersham) as a ligand, the cells were subjected to a binding reaction at room temperature for 40 minutes. Wells containing the cells were washed with ice-cooled PBS, and 50 μl/well of 1M NaOH was added and stirred. The cells to which the ligand was bound specifically, i.e., CCR5/CHO cells, were selected by measurement of radioactivity using a […].
The CCR5/CHO cells were inoculated onto 96-well microplate at a concentration of 5×10^4 cells/well, and were cultured for 24 hours. After removal of the medium by aspiration, to each well was added an assay buffer containing a test compound (1 μM), and [125I]/RANTES (Amersham) used as a ligand at a concentration of […]. […]

T1 sequence (P51681 whole entry): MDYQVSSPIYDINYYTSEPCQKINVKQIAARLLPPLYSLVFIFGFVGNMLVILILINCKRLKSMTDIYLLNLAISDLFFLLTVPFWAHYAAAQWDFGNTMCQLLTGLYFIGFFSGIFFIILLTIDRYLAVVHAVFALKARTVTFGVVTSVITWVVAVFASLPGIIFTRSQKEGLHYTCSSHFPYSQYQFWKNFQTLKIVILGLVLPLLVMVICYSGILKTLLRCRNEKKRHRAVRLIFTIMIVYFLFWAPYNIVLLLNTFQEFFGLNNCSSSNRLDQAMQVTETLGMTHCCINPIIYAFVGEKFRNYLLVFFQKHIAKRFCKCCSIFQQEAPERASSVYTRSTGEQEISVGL

Row | Structure (SMILES) | inhibition at 1 µM [1] [%] | melting point [°C] | Binding Inhibitory Ratio (%) ([1]; 40 minutes)
1 | CCCCOCCOc1ccc(-c2ccc3c(c2)C=C(C(=O)Nc2ccc([S+]([O-])Cc4nccn4CCCC(=O)NC)cc2)CCN3CC(C)C)cc1 (centres unmarked) [Compound 424, 7-[4-(2-butoxyethoxy)phenyl]-N-[4-[[[1-[4-(methylamino)-4-oxobutyl]-1H-imidazol-2-yl]methyl]sulfinyl]phenyl]-1-isobutyl-2,3-dihydro-1H-1-benzazepine-4-carboxamide] | 96 | 159 to 161 | –
2 | CCCCOCCOc1ccc(-c2ccc3c(c2)C=C(C(=O)Nc2ccc([S+]([O-])Cc4nncn4CC)cc2)CCN3CC(C)C)cc1 (centres unmarked) [Compound 135, 7-[4-(2-butoxyethoxy)phenyl]-N-[4-(4-ethyl-4H-1,2,4-triazol-3-ylmethylsulfinyl)phenyl]-1-isobutyl-2,3-dihydro-1H-benzazepine-4-carboxamide] | 100 | 102 to 104 | –
3 | CCCCOCCOc1ccc(-c2ccc3c(c2)C=C(C(=O)Nc2ccc([C@H](O)c4cccc[n+]4[O-])cc2)CCN3Cc2cnn(C)c2)cc1 [Compound 87, 7-[4-(2-butoxyethoxy)phenyl]-N-[4-[(S)-hydroxy(1-oxidopyridin-2-yl)methyl]phenyl]-1-(1-methylpyrazol-4-ylmethyl)-2,3-dihydro-1H-1-benzazepine-4-carboxamide] | 89 | 94 to 97 | –
4 | CCCCOCCOc1ccc(-c2ccc3c(c2)C=C(C(=O)Nc2ccc(SCc4nccn4C)c(C)c2)CCN3CC(C)C)cc1 [Compound 355, 7-[4-(2-butoxyethoxy)phenyl]-1-isobutyl-N-[3-methyl-4-[[(1-methylimidazol-2-yl)methyl]sulfanyl]phenyl]-2,3-dihydro-1-benzazepine-4-carboxamide] | 99 | – | –
5 | CCCCOCCOc1ccc(-c2ccc3c(c2)C=C(C(=O)Nc2ccc([S+]([O-])Cc4cccnc4C)cc2)CCN3CC(C)C)cc1 (centres unmarked) [Compound 251, 7-[4-(2-butoxyethoxy)phenyl]-1-isobutyl-N-[4-[[(2-methyl-3-pyridinyl)methyl]sulfinyl]phenyl]-2,3-dihydro-1-benzazepine-4-carboxamide] | 99 | – | –
6 | CCCCOCCOc1ccc(-c2ccc3c(c2)C=C(C(=O)Nc2ccc([S+]([O-])Cc4cncn4CCOC(C)=O)cc2)CCN3CC(C)C)cc1 (centres unmarked) [Compound 427, [5-[[[4-[[[7-[4-(2-butoxyethoxy)phenyl]-1-isobutyl-2,3-dihydro-1H-1-benzazepin-4-yl]carbonyl]amino]phenyl]sulfinyl]methyl]-1H-imidazol-1-yl]ethyl acetate] | 100 | – | –
7 | CCCCOCCOc1ccc(-c2ccc3c(c2)C=C(C(=O)Nc2ccc(SCc4nncn4CCC)c(C)c2)CCN3CC(C)C)cc1 [Compound 40, 7-[4-(2-butoxyethoxy)phenyl]-1-isobutyl-N-[3-methyl-4-[(4-propyl-4H-1,2,4-triazol-3-yl)methylthio]phenyl]-2,3-dihydro-1H-1-benzazepine-4-carboxamide] | 90 | 104 to 107 | –
8 | CCCCOCCOc1ccc(-c2ccc3c(c2)C=C(C(=O)Nc2ccc([S+]([O-])Cc4cncn4CCC)cc2)CCN3CCC)cc1 (centres unmarked) [Compound 375, 7-[4-(2-butoxyethoxy)phenyl]-1-propyl-N-[4-[[[1-propylimidazol-5-yl]methyl]sulfinyl]phenyl]-2,3-dihydro-1-benzazepine-4-carboxamide] | 92 | – | –
9 | CCCCOCCOc1ccc(-c2ccc3c(c2)C=C(C(=O)Nc2ccc(SCc4nccn4CCCC(N)=O)cc2)CCN3CC(C)C)cc1 [Compound 415, N-[4-[[[1-(4-amino-4-oxobutyl)-1H-imidazol-2-yl]methyl]thio]phenyl]-7-[4-(2-butoxyethoxy)phenyl]-1-isobutyl-2,3-dihydro-1H-1-benzazepine-4-carboxamide] | 98 | 142 to 143 | –
10 | CCCCOCCOc1ccc(-c2ccc3c(c2)C=C(C(=O)Nc2ccc4nc([S+]([O-])Cc5cncn5CCC)[nH]c4c2)CCN3CC(C)C)cc1 (centres unmarked) [Compound 313, 7-[4-(2-butoxyethoxy)phenyl]-1-isobutyl-N-[2-[[(1-propylimidazol-5-yl)methyl]sulfinyl]benzimidazol-5-yl]-2,3-dihydro-1-benzazepine-4-carboxamide] | 95 | – | –
11 | CCCCOCCOc1ccc(-c2ccc3c(c2)C=C(C(=O)Nc2ccc(SCc4cncn4C(C)C)cc2)CCN3CC(C)C)cc1 [Compound 383, 7-[4-(2-butoxyethoxy)phenyl]-1-isobutyl-N-[4-[[[1-isopropylimidazol-5-yl]methyl]sulfanyl]phenyl]-2,3-dihydro-1-benzazepine-4-carboxamide] | 93 | – | –
12 | CCCCOCCOc1ccc(-c2ccc3c(c2)C=C(C(=O)Nc2ccc(SCc4nncn4CCC)nc2)CCN3CC(C)C)cc1 [Compound 53, 7-[4-(2-butoxyethoxy)phenyl]-1-isobutyl-N-[2-(4-propyl-4H-1,2,4-triazol-3-yl)methylthiopyridin-5-yl]-2,3-dihydro-1H-1-benzazepine-4-carboxamide] | 98 | – | –
13 | CCCCOCCOc1ccc(-c2ccc3c(c2)C=C(C(=O)Nc2ccc(S(=O)(=O)Cc4nccn4CCCC(=O)NC)cc2)CCN3CC(C)C)cc1 [Compound 425, 7-[4-(2-butoxyethoxy)phenyl]-N-[4-[[[1-[4-(methylamino)-4-oxobutyl]-1H-imidazol-2-yl]methyl]sulfonyl]phenyl]-1-isobutyl-2,3-dihydro-1H-1-benzazepine-4-carboxamide] | 100 | – | –
14 | CCCCOCCOc1ccc(-c2ccc3c(c2)C=C(C(=O)Nc2ccc([S+]([O-])Cc4nncn4CCC)cc2)CCN3CCC)cc1 (centres unmarked) [Compound 141, 7-[4-(2-butoxyethoxy)phenyl]-1-propyl-N-[4-(4-propyl-4H-1,2,4-triazol-3-ylmethylsulfinyl)phenyl]-2,3-dihydro-1H-benzazepine-4-carboxamide] | 100 | – | –
15 | CCCCOCCOc1ccc(-c2ccc3c(c2)C=C(C(=O)Nc2ccc([S+]([O-])Cc4cccnn4)cc2)CCN3CC(C)C)cc1 (centres unmarked) [Compound 259, 7-[4-(2-butoxyethoxy)phenyl]-1-isobutyl-N-[4-[(3-pyridazinylmethyl)sulfinyl]phenyl]-2,3-dihydro-1-benzazepine-4-carboxamide] | 88 | – | –
16 | CCCCOCCOc1ccc(-c2ccc3c(c2)C=C(C(=O)Nc2ccc([S+]([O-])Cc4nc(C)cc(C)n4)cc2)CCN3CC(C)C)cc1 (centres unmarked) [Compound 230, 7-[4-(2-butoxyethoxy)phenyl]-N-[4-[[(4,6-dimethyl-2-pyrimidinyl)methyl]sulfinyl]phenyl]-1-isobutyl-2,3-dihydro-1-benzazepine-4-carboxamide] | 98 | – | –
17 | CCCCOCCOc1ccc(-c2ccc3c(c2)C=C(C(=O)Nc2ccc([S+]([O-])Cc4nccn4CCCO)cc2)CCN3CC(C)C)cc1 (centres unmarked) [Compound 437] | – | – | 100
18 | CCCCOCCOc1ccc(-c2ccc3c(c2)C=C(C(=O)Nc2ccc([C@H](O)c4cccc[n+]4[O-])cc2)CCN3CC(C)C)cc1 [Compound 85, 7-[4-(2-butoxyethoxy)phenyl]-N-[4-[(S)-hydroxy(1-oxidopyridin-2-yl)methyl]phenyl]-1-isobutyl-2,3-dihydro-1H-1-benzazepine-4-carboxamide] | 92 | – | –
